Measurements from patent US20210392892A1, “COMPOSITIONS COMPRISING PYRIDINE CARBOXYLATE HERBICIDES AND ACETYL COA CARBOXYLASE (ACCASE) INHIBITOR HERBICIDES” (Corteva Agriscience LLC, priority 2018, published 2021).

Tests used:
Experiment in all cases: Greenhouse postemergence herbicidal effect (visual injury)
Type in all cases: in vivo
[1] = test system: BRSNW, Brassica napus (winter rape)
Description: (§1) Seeds of the desired test plant species were planted in a 90:10% v/v (volume/volume) mixture of PRO-MIX® BX (Premier Tech Horticulture, Quakertown, Pa., USA) and PROFILE® GREENS GRADE™ (Profile Products LLC, Buffalo Grove, Ill., USA) planting mixture, which typically has a pH of 5.2 to 6.2 and an organic matter content of at least 50 percent, in plastic pots with a surface area of 103.2 square centimeters (cm^2). In some aspects, to help ensure good germination and healthy plants, a fungicide treatment and/or other chemical or physical treatment was applied. The plants were grown for 7-36 days (d) in a greenhouse with an approximate 14-hour (h) photoperiod which was maintained at about 23° C. during the day and 22° C. during the night. Nutrients and water were added on a regular basis and supplemental lighting was provided with overhead metal halide 1000-Watt lamps as necessary. The plants were employed for testing when they reached the second or third true leaf stage.
(§2) Emulsifiable concentrates of each of each pyridine carboxylate herbicide (Compound A or Compound B) were prepared at 100 grams acid equivalent per liter (g ae/L). The emulsifiable concentrates also included a safener, cloquintocet-mexyl, at 120 grams active ingredient per liter (g ai/L), unless otherwise noted below. An aliquot of each emulsifiable concentrate was placed in a 25 mL glass vial and diluted with an aqueous mixture of 1.25% (v/v) ACTIROB® B esterified rapeseed oil (Bayer Crop Science, Research Triangle Park, N.C., USA) or MSO® Concentrate with LECI-TECH® methylated soybean oil (Loveland Products, Loveland, Colo., USA) to obtain concentrated stock solutions at the highest application rate for each herbicide, based upon a 12 milliliter (mL) application volume at a rate of 187 liters per hectare (L/ha). The concentrated stock solutions were further diluted with an aqueous mixture of 1.25% v/v ACTIROB® B or MSO® Concentrate with LECI-TECH® to obtain stock solutions at reduced application rates for each herbicide. Spray solutions of the herbicide combinations (Compound A or Compound B plus ACCase inhibitor herbicide) were prepared by adding weighed amounts or aliquots of the ACCase inhibitor herbicide to the stock solutions of Compound A or Compound B to form 12-mL spray solutions in two-way combinations.
(§3) The spray solutions were applied to the plant material with an overhead Mandel track sprayer equipped with 8002E nozzles calibrated to deliver 187 L/ha over an application area of 0.503 square meters (m^2) at a spray height of 18 inches (43 centimeters (cm)) above the average plant canopy. Control plants were sprayed in the same manner with the solvent blank. All pyridine carboxylate herbicide (component a) application rates are given as “g ae/ha” and all ACCase inhibitor herbicide (component b) application rates are given as “g ai/ha.”
(§4) The treated plants and control plants were placed in a greenhouse as described above and watered by sub-irrigation to prevent wash-off of the test compounds. After 20-22 d, the condition of the test plants as compared with that of the control plants was determined visually and scored on a scale of 0 to 100 percent where 0 corresponds to no injury and 100 corresponds to complete kill.

[2] = test system: HELAN, Helianthus annuus (common sunflower)
Description: as §1, §2, §3, §4

[3] = test system: IPOHE, Ipomoea hederacea (ivyleaf morningglory)
Description: as §1, §2, §3, §4

[4] = test system: POLCO, Polygonum convolvulus (wild buckwheat)
Description: as §1, §2, §3, §4

[5] = test system: RUMOB, Rumex obtusifolius (broad-leaf dock)
Description: as §1, §2, §3, §4

[6] = 7.5 g ae/ha, without cloquintocet-mexyl
[7] = 10 g ae/ha, without cloquintocet-mexyl

`N#CCOC(=O)c1nc(-c2ccc3cc[nH]c3c2F)c(F)c(N)c1Cl` [Compound A, cyanomethyl 4-amino-3-chloro-5-fluoro-6-(7-fluoro-1H-indol-6-yl)pyridine-2-carboxylate] was tested, and the “% visual injury, Obs” value [1, 6] was 50%, the “% visual injury, Obs” value [1, 7] was 65% and the “% visual injury, Obs” value ([1]; BRSNW, Compound A 7.5 g/ha, Fluazifop 0 g/ha) was 50%. The “% visual injury, Obs” value ([1]; BRSNW, Compound A 10 g/ha, Fluazifop 0 g/ha) was 65%, the “% visual injury, Obs” value [2, 6] was 95% and the “% visual injury, Obs” value [2, 7] was 100%. For the same compound, the “% visual injury, Obs” value ([2]; HELAN, Compound A 7.5 g/ha, Fluazifop 0 g/ha) was 95%, the “% visual injury, Obs” value ([2]; HELAN, Compound A 10 g/ha, Fluazifop 0 g/ha) was 100% and the “% visual injury, Obs” value [3, 6] was 10%. For the same compound, the “% visual injury, Obs” value [3, 7] was 15%, the “% visual injury, Obs” value ([3]; IPOHE, Compound A 7.5 g/ha, Fluazifop 0 g/ha) was 10% and the “% visual injury, Obs” value ([3]; IPOHE, Compound A 10 g/ha, Fluazifop 0 g/ha) was 15%. The “% visual injury, Obs” value [4, 6] was 80%, the “% visual injury, Obs” value [4, 7] was 78% and the “% visual injury, Obs” value ([4]; POLCO, Compound A 7.5 g/ha, Fluazifop 0 g/ha) was 80%. The “% visual injury, Obs” value ([4]; POLCO, Compound A 10 g/ha, Fluazifop 0 g/ha) was 78%, the “% visual injury, Obs” value ([5]; 7.5 g ae/ha, with cloquintocet-mexyl) was 13% and the “% visual injury, Obs” value [5, 6] was 38%. For the same compound, the “% visual injury, Obs” value ([5]; 10 g ae/ha, with cloquintocet-mexyl) was 8%, the “% visual injury, Obs” value [5, 7] was 35% and the “% visual injury, Obs” value ([5]; RUMOB, Compound A 7.5 g/ha, Fluazifop 0 g/ha) was 38%. The “% visual injury, Obs” value ([5]; RUMOB, Compound A 10 g/ha, Fluazifop 0 g/ha) was 35%.
